Laboratory results as given in PubChem BioAssay AID328 (DTP/NCI, 2004).
“And” between values parts separate entries of the source, which are not always exact repeats. Identical values can stand only once. Toxic doses and inconclusive results are not listed. The calls were made as follows: active = survival T/C of 150% or more; inactive = T/C below 125% in these data.

System: BDF1 mice, P388 leukemia ip, median survival T/C
Assay: NCI In Vivo Anticancer Drug Screen. Data for tumor model P388 Leukemia (intraperitoneal) in B6D2F1 (BDF1) mice
Conditions: endpoint: median survival time, higher = longer survival
In short: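 Antitumour effect was judged in vivo: survival in drug-treated mice, normalised to that of vehicle-dosed controls, gives the reported T/C.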

[1] = dose: 100.0 mg/kg/injection, schedule: Q04DX003 (ip), vehicle: Klucel (hydroxypropylcellulose) (HPC)
[2] = dose: 200.0 mg/kg/injection, schedule: Q04DX003 (ip), vehicle: Klucel (hydroxypropylcellulose) (HPC)
[3] = dose: 100.0 mg/kg/injection, schedule: Q01DX001 (ip), vehicle: Klucel (hydroxypropylcellulose) (HPC)
[4] = dose: 100.0 mg/kg/injection, schedule: Q04DX003 (ip), vehicle: saline
[5] = dose: 200.0 mg/kg/injection, schedule: Q01DX001 (ip), vehicle: Klucel (hydroxypropylcellulose) (HPC)
[6] = dose: 200.0 mg/kg/injection, schedule: Q04DX003 (ip), vehicle: saline
[7] = dose: 400.0 mg/kg/injection, schedule: Q01DX001 (ip), vehicle: Klucel (hydroxypropylcellulose) (HPC)
[8] = dose: 400.0 mg/kg/injection, schedule: Q04DX003 (ip), vehicle: saline
[9] = dose: 100.0 mg/kg/injection, schedule: Q01DX009 (ip), vehicle: saline with Tween-80
[10] = dose: 100.0 mg/kg/injection, schedule: Q04DX003 (ip), vehicle: saline with Tween-80
[11] = dose: 200.0 mg/kg/injection, schedule: Q01DX009 (ip), vehicle: saline with Tween-80
[12] = dose: 200.0 mg/kg/injection, schedule: Q04DX003 (ip), vehicle: saline with Tween-80
[13] = dose: 400.0 mg/kg/injection, schedule: Q04DX003 (ip), vehicle: saline with Tween-80
[14] = dose: 25.0 mg/kg/injection, schedule: Q01DX009 (ip), vehicle: saline with Tween-80
[15] = dose: 50.0 mg/kg/injection, schedule: Q01DX009 (ip), vehicle: saline with Tween-80
[16] = dose: 400.0 mg/kg/injection, schedule: Q01DX009 (ip), vehicle: saline with Tween-80

Measured: T/C

COCCNCCN1CCN(CCCN2c3ccccc3Sc3ccc(C(F)(F)F)cc32)CC1
inactive: dose: 20.0 mg/kg/injection, schedule: Q04DX003 (ip), vehicle: saline 105 % of control and 106 % of control | dose: 40.0 mg/kg/injection, schedule: Q04DX003 (ip), vehicle: saline 108 % of control and 113 % of control | dose: 80.0 mg/kg/injection, schedule: Q04DX003 (ip), vehicle: saline 120 % of control

Cn1c(=O)c2c(ncn2C)n(C)c1=O
inactive: dose: 50.0 mg/kg/injection, schedule: Q01DX010 (ip), vehicle: saline 100 % of control | dose: 100.0 mg/kg/injection, schedule: Q01DX010 (ip), vehicle: saline 100 % of control | dose: 200.0 mg/kg/injection, schedule: Q01DX010 (ip), vehicle: saline 104 % of control

CCN1C(=O)C(=O)c2ccccc21
inactive: dose: 75.0 mg/kg/injection, schedule: Q01DX009 (ip), vehicle: saline with Tween-80 86 % of control

O=C(NCCCl)NC1c2ccccc2CCc2ccccc21
inactive: dose: 50.0 mg/kg/injection, schedule: Q01DX009 (ip), vehicle: Klucel (hydroxypropylcellulose) (HPC) 105 % of control | dose: 100.0 mg/kg/injection, schedule: Q01DX009 (ip), vehicle: Klucel (hydroxypropylcellulose) (HPC) 105 % of control | [1] 95 % of control | dose: 200.0 mg/kg/injection, schedule: Q01DX009 (ip), vehicle: Klucel (hydroxypropylcellulose) (HPC) 100 % of control | [2] 90 % of control

CCOC(=O)/C(=C\c1ccc2c(c1)OCO2)NC(=O)c1ccccc1
inactive: [3] 104 % of control | [4] 112 % of control | [5] 100 % of control | [6] 95 % of control | [7] 100 % of control | [8] 95 % of control

CCN1C(=O)c2ccccc2C1=O
inactive: dose: 50.0 mg/kg/injection, schedule: Q04DX003 (ip), vehicle: Klucel (hydroxypropylcellulose) (HPC) 104 % of control | [3] 104 % of control | [1] 118 % of control | [5] 108 % of control | [2] 100 % of control | [7] 104 % of control

O=C(NC(Cc1nn[nH]n1)C(=O)OCc1ccccc1)OCc1ccccc1 (stereo unspecified)
inactive: [9] 100 % of control | [10] 111 % of control | [11] 96 % of control | [12] 94 % of control | [13] 87 % of control

CC(C)(N)CCC(C)(C)NCCCN
inactive: dose: 50.0 mg/kg/injection, schedule: Q01DX009 (ip), vehicle: water 92 % of control | dose: 100.0 mg/kg/injection, schedule: Q01DX009 (ip), vehicle: water 103 % of control | dose: 100.0 mg/kg/injection, schedule: Q04DX003 (ip), vehicle: water 100 % of control | dose: 200.0 mg/kg/injection, schedule: Q01DX009 (ip), vehicle: water 106 % of control | dose: 200.0 mg/kg/injection, schedule: Q04DX003 (ip), vehicle: water 103 % of control | dose: 400.0 mg/kg/injection, schedule: Q04DX003 (ip), vehicle: water 92 % of control

O=c1[nH]c(Cl)nc2c(Cl)c(C(Cl)(Cl)Cl)nn12
inactive: [14] 104 % of control | dose: 25.0 mg/kg/injection, schedule: Q04DX003 (ip), vehicle: saline with Tween-80 113 % of control | [15] 109 % of control | dose: 50.0 mg/kg/injection, schedule: Q04DX003 (ip), vehicle: saline with Tween-80 120 % of control | [9] 106 % of control | [10] 93 % of control and 104 % of control | [11] 109 % of control | [16] 104 % of control | [13] 86 % of control

CC(Br)C(=O)NC(CO)C(=O)O (stereo unspecified)
inactive: [4] 95 % of control | [6] 91 % of control | [8] 91 % of control

CCOC(CCC#N)c1ccccc1 (stereo unspecified)
inactive: dose: 266.0 mg/kg/injection, schedule: Q04DX003 (ip), vehicle: saline with Tween-80 114 % of control | [13] 114 % of control | dose: 600.0 mg/kg/injection, schedule: Q04DX003 (ip), vehicle: saline with Tween-80 119 % of control

CCOC(=O)c1cc(N)c(N2CCCC2)cc1Cl
inactive: [10] 100 % of control | dose: 133.0 mg/kg/injection, schedule: Q04DX003 (ip), vehicle: saline with Tween-80 89 % of control | [12] 105 % of control | dose: 300.0 mg/kg/injection, schedule: Q04DX003 (ip), vehicle: saline with Tween-80 94 % of control | [13] 100 % of control

NC(=S)N/N=C/c1ccc(-c2ccccc2)cc1
inactive: dose: 12.5 mg/kg/injection, schedule: Q01DX009 (ip), vehicle: saline with Tween-80 90 % of control | [14] 109 % of control | [15] 86 % of control

N#CSCc1ccc(OCc2ccccc2)cc1
inactive: [15] 100 % of control | [9] 103 % of control | [11] 112 % of control

C=C(C)c1c2ccccc2cc2cccc(Sc3ccccc3)c12
inactive: [9] 100 % of control | [11] 95 % of control | [16] 100 % of control

COc1ccc(C(C)=O)c(OC)c1C
inactive: dose: 100.0 mg/kg/injection, schedule: Q01DX009 (ip), vehicle: saline 104 % of control | dose: 200.0 mg/kg/injection, schedule: Q01DX009 (ip), vehicle: saline 96 % of control | dose: 400.0 mg/kg/injection, schedule: Q01DX009 (ip), vehicle: saline 100 % of control

CC1(C(=O)O)CCC2(C)CCC3(C)C(=CC(=O)C4C5(C)CCC(OC6OC(C(=O)O)C(O)C(O)C6OC6OC(C(=O)O)C(O)C(O)C6O)C(C)(C)C5CCC43C)C2C1 (stereo unspecified)
inactive: dose: 100.0 mg/kg/injection, schedule: Q04DX003 (ip), vehicle: alcohol 104 % of control | dose: 200.0 mg/kg/injection, schedule: Q04DX003 (ip), vehicle: alcohol 104 % of control | dose: 400.0 mg/kg/injection, schedule: Q04DX003 (ip), vehicle: alcohol 90 % of control

O=C1C2CCC(C2)[CH]1[Hg][Cl] (stereo unspecified)
inactive: dose: 1.56 mg/kg/injection, schedule: Q01DX009 (ip), vehicle: saline with Tween-80 102 % of control | dose: 3.13 mg/kg/injection, schedule: Q01DX009 (ip), vehicle: saline with Tween-80 103 % of control | dose: 6.25 mg/kg/injection, schedule: Q01DX009 (ip), vehicle: saline with Tween-80 118 % of control

Cc1ccc(C2=NNc3n[nH]c(=S)n3N2)cc1
inactive: [10] 91 % of control | [12] 95 % of control | [13] 100 % of control
